From patent US11603377B2, “MTORC1 modulators and uses thereof” (Aeovian Pharmaceuticals, Inc., priority 2020, dated 2023) come the findings set out here.

Molecules are shown by their SMILES.

Assay [1] addresses FKBP12 (Homo sapiens (Human), UniProt P62942). Kind of assay: SPR assay to determine binding affinity to FKBP12 (direct binding). As to conditions: immobilized biotinylated avi-FKBP12. Here is the method:
SPR Assay to Determine Binding Affinity to FKBP12.
Biotinylated avi-FKBP12 was immobilized on a streptavidin chip (Cytiva Series S SA) using a Biacore 8K or 8 k+ (Cytiva). To achieve an immobilization level of 1000 RU, 2 μg/ml biotinylated avi-FKBP12 were injected for 100 sec at a flow rate of 10 μl/min. Rapalogs were diluted in DMSO to 100× working concentration. Each Rapalog was 100-fold diluted in 50 mM HEPES pH 7.5, 150 mM NaCl, 2 mM MgCl2, 1 mM DTT, 0.05% Tween-20 and a serial dilution prepared (9 concentrations, 3-fold dilutions, 0.08-500 nM). […] The compound dilutions were then injected at 100 uL/min for 120 seconds contact time in sequence with increasing concentrations. Dissociation was monitored for 3600 seconds. 50 mM HEPES pH 7.5, 150 mM NaCl, 2 mM MgCl2, 1 mM DTT, 0.05% Tween-20, 1% DMSO was used as running buffer. The single-cycle kinetics data were fit to a 1:1 binding model to measure the association rate ka (1/Ms), the dissociation rate kd (1/s) and the affinity Kd (M).
On the technique in general: In SPR one partner is held on a chip, and binding of the other changes the refractive index at the surface.

Assay [2] concerns the target FKBP51 (Homo sapiens (Human), UniProt Q13451). Kind of assay: SPR assay to determine binding affinity to FKBP51 (direct binding). Conditions: immobilized biotinylated avi-FKBP51. How it is done: Example 29: SPR Assay to Determine Binding Affinity to FKBP51
Biotinylated avi-FKBP51 was immobilized on a streptavidin chip (Cytiva Series S SA) using a Biacore 8K or 8 k+ (Cytiva). To achieve an immobilization level of 2000 RU, 3 μg/ml biotinylated avi-FKBP51 were injected for 360 sec at a flow rate of 10 μl/min. Rapalogs were diluted in DMSO to 100× working concentration. Each Rapalog was 100-fold diluted in 50 mM HEPES pH 7.5, 150 mM NaCl, 2 mM MgCl2, 1 mM DTT, 0.05% Tween-20 and a serial dilution prepared (8 concentrations, 3-fold dilutions, 0.5-1000 nM). […] The compound dilutions were then injected at 100 uL/min for 120 seconds contact time and with 3600 seconds dissociation time with increasing concentrations. 50 mM HEPES pH 7.5, 150 mM NaCl, 2 mM MgCl2, 1 mM DTT, 0.05% Tween-20, 1% DMSO was used as running buffer. Multi-cycle kinetics data were fit to a 1:1 binding model to measure the association rate ka (1/Ms), the dissociation rate kd (1/s) and the affinity Kd (M).

The target in assay [3] is FKBP12 / FRB ternary complex (Homo sapiens (Human), UniProt P42345+P62942). As to the kind of experiment: SPR assay to characterize ternary complex formation with FKBP12 (FRB binding to rapalog-saturated FKBP12). Conditions: FRB dilutions with 100 nM rapalog on immobilized FKBP12. Here is the method: Example 30: SPR Assay to Characterize Ternary Complex Formation with FKBP12
(§1) Biotinylated avi-FKBP12 was immobilized on a streptavidin chip (Cytiva Series S SA) using a Biacore 8K or 8 k+ (Cytiva). To achieve an immobilization level of 100 RU, 0.3 μg/ml biotinylated avi-FKBP12 were injected for 80 sec at a flow rate of 10 μl/min. Serial dilution of FRB was prepared (12 concentrations, 3-fold dilutions, 0.00011-20 μM) and supplemented with 100 nM of rapalog. A-B-A injection mode was used to ensure saturation immobilized FKBP12 with respective rapalog. 100 nM solution of the respective rapalog was injected before FRB injection for 120 sec and during dissociation for 420 sec. The FRB dilutions were then injected 120 seconds contact time with increasing concentrations. […] 50 mM HEPES pH 7.5, 150 mM NaCl, 2 mM MgCl2, 1 mM DTT, 0.05% Tween-20, 1% DMSO was used as running buffer at a flow rate of 30 μl/min. The multi-cycle kinetics data were fit to a 1:1 binding model to measure the association rate ka (1/Ms), the dissociation rate kd (1/s) and the affinity Kd (M). In case of fast association and dissociation, steady state affinity analysis following the law of mass action was used to determine the affinity Kd (M).

Assay [4] addresses FKBP51 / FRB ternary complex (Homo sapiens (Human), UniProt P42345+Q13451). As to the kind of experiment: SPR assay to characterize ternary complex formation with FKBP51 (FRB binding to rapalog-saturated FKBP51). As to conditions: FRB dilutions with 100 nM rapalog on immobilized FKBP51. How it is done:
Example 31: SPR Assay to Characterize Ternary Complex Formation with FKBP51
as §1, with “Biotinylated avi-FKBP51” for “Biotinylated avi-FKBP12”, “of 200” for “of 100”, “RU, 0.6” for “RU, 0.3”, “biotinylated avi-FKBP51” for “biotinylated avi-FKBP12”, “for 150” for “for 80”

The target of assay [5] is mTORC1 (Homo sapiens (Human), UniProt P42345+P62942). Kind of assay: mTORC1 inhibition, AlphaLISA of Phospho-p70 S6 kinase (p70S6K pT389) in PC-3 cells. Type of assay: cell-based. Conditions: inhibition of p70S6K pT389 levels.
Assay [6] has as its target mTORC2 (Homo sapiens (Human), UniProt P42345+P62942). As to the kind of experiment: mTORC2 inhibition, AlphaLISA of Phospho-AKT (pAKT pS473) in PC3 cells. Type of assay: cell-based. How it is done:
Example 32: mTORC1 Inhibition, mTORC2 Inhibition, Cell Lysis, AlphaLISA Experiments, and Data Analysis
mTORC2 inhibition was determined via analysis of phosphorylation level of Phospho-AKT (pAKT pS473) with the corresponding AlphaLISA kit (PerkinElmer, Alpha SF Ultra™ Multiplex p-AKT1/2/3(Ser473)/Total AKT1). PC3 cells were plated on 96 well plates in assay medium (DMEM: Ham's F12, basic (CLS Cell Lines Service GmbH, Cat #820400a), supplemented with additional 10% FBS at 1.20E+06 cells/mL and incubated over-night at 37° C., 5% CO2. On the following day, cells were treated with assay medium (10% FBS) containing increasing compound concentrations (12 points at 3-fold dilutions) and incubated for 6 hours at 37° C., 5% CO2. Thereafter, medium was aspirated and cells were rinsed with PBS. In the following, cells were treated with compound dilutions in starvation medium (DMEM: Ham's F12, basic; without FBS) for further 18 h at 37° C., 5% CO2. Then, immediately prior to cell lysis, cells were treated with 12% FBS for 15 min.
After performing experiments according to mTORC1 and mTORC2 protocols, cells were harvested in lysis buffer supplied with the AlphaLISA kits, additionally enriched with Roche cOmplete™ Protease Inhibitor Cocktail (Cat #CO-RO). Thus, cells were lysed using 50 μL of the lysis buffer and incubated for 60 min at 4° C. while shaking. After centrifugation at 4000 rpm for 5 min, experiments were performed according to the AlphaLISA manufacturer's protocol.
Ten microliters of cell lysates were mixed with the acceptor mix. After incubation for 2 h at room temperature, the donor mix was added. After additional incubation at room temperature for 2 hours, AlphaLISA signal was read on PHERAstar® FSX (BMG Labtech) with AlphaPLEX module.
EC50 values were calculated by ExcelFit standard algorithm.

Chain of FKBP51 (Q13451 whole entry): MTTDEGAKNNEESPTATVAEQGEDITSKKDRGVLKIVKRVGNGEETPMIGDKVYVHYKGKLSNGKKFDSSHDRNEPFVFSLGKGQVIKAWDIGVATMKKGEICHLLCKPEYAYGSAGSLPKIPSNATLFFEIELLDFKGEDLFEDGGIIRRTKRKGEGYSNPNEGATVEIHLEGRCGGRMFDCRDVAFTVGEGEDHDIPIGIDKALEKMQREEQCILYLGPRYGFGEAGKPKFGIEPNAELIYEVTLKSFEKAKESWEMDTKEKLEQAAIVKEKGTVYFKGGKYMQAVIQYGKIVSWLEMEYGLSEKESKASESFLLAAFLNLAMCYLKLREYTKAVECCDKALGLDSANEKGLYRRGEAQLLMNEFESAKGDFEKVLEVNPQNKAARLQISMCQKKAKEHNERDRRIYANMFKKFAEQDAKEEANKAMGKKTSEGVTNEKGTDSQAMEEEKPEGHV
Chain of FKBP12 (P62942 whole entry): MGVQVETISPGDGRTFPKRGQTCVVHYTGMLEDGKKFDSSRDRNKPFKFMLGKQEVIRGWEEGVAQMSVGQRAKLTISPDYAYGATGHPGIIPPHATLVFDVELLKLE

Turning to `COC1CC(CC(C)C2CC(=O)C(C)C=C(C)C(O)C(OC)C(=O)C(C)CC(C)C=CC=CC=C(C)C(NS(=O)(=O)C3CC3)CC3CCC(C)C(O)(O3)C(=O)C(=O)N3CCCCC3C(=O)O2)CCC1O` (mixture of isomers) [Compound 1], the Kd is greater than 0.001 µM in assay [1], 0.01 to 0.1 µM in assay [2], 0.3 to 0.8 µM in assay [3] and less than 0.3 µM in assay [4]. In assay [5], this compound registered an IC50 of 0.0001 to 0.0008 µM. The “mTORC2 % inhibition at 1 uM” value in assay [6] is given as “A (A ≤20% inhibition at 1 micro Molar (uM))”.
On to `COCCOCCS(=O)(=O)NC1CC2CCC(C)C(O)(O2)C(=O)C(=O)N2CCCCC2C(=O)OC(C(C)CC2CCC(OCCCS(C)(=O)=O)C(OC)C2)CC(=O)C(C)C=C(C)C(O)C(OC)C(=O)C(C)CC(C)C=CC=CC=C1C` (mixture of isomers) [Compound 4], for which the Kd was less than 0.0003 µM in assay [1], 0.01 to 0.1 µM in assay [2], less than 0.3 µM in assay [3] and 0.3 to 0.8 µM in assay [4]. Besides, in assay [5], the half-inhibitory concentration (IC50) is less than 0.0001 µM. In addition, in assay [6], the “mTORC2 % inhibition at 1 uM” value is “A (A ≤20% inhibition at 1 micro Molar (uM))”.
As for `COCCOCCS(=O)(=O)NC1CC2CCC(C)C(O)(O2)C(=O)C(=O)N2CCCCC2C(=O)OC(C(C)CC2CCC(OCCO)C(OC)C2)CC(=O)C(C)C=C(C)C(O)C(OC)C(=O)C(C)CC(C)C=CC=CC=C1C` (mixture of isomers) [Compound 7], the equilibrium dissociation constant (Kd) in assay [1] is less than 0.0003 µM; in assay [2], 0.01 to 0.1 µM; in assay [3], less than 0.3 µM; in assay [4] it was 0.3 to 0.8 µM. Besides, the concentration for half-maximal inhibition (IC50) in assay [5] lay in the range of 0.0001 to 0.0008 µM. For the same compound, the “mTORC2 % inhibition at 1 uM” value in assay [6] was “B (B>20% and less than 40% inhibition at 1 uM)”.
As for `COCCS(=O)(=O)NC1CC2CCC(C)C(O)(O2)C(=O)C(=O)N2CCCCC2C(=O)OC(C(C)CC2CCC(OCCCO)C(OC)C2)CC(=O)C(C)C=C(C)C(O)C(OC)C(=O)C(C)CC(C)C=CC=CC=C1C` (mixture of isomers) [Compound 13], the equilibrium dissociation constant (Kd) in assay [1] is less than 0.0003 µM; in assay [2] it was 0.01 to 0.1 µM; in assay [3], 0.3 to 0.8 µM; in assay [4] it was greater than 0.8 µM. The compound further gave an IC50 in assay [5] of 0.0001 to 0.0008 µM. Further, the “mTORC2 % inhibition at 1 uM” value in assay [6] is on record as “A (A ≤20% inhibition at 1 micro Molar (uM))”.
For `CCOC(=O)COC1CCC(CC(C)C2CC(=O)C(C)C=C(C)C(O)C(OC)C(=O)C(C)CC(C)C=CC=CC=C(C)C(NS(=O)(=O)CCOC)CC3CCC(C)C(O)(O3)C(=O)C(=O)N3CCCCC3C(=O)O2)CC1OC` (mixture of isomers) [Compound 14], the Kd in assay [1] was 0.0003 to 0.001 µM; in assay [2], 0.01 to 0.1 µM; in assay [3] it was greater than 0.8 µM; in assay [4], greater than 0.8 µM. This compound also gave a half-maximal inhibitory concentration (IC50) in assay [5] greater than 0.0008 µM. In addition, in assay [6], the “mTORC2 % inhibition at 1 uM” value is recorded as “A (A ≤20% inhibition at 1 micro Molar (uM))”.
For the compound `COC1CC(CC(C)C2CC(=O)C(C)C=C(C)C(O)C(OC)C(=O)C(C)CC(C)C=CC=CC=C(C)C(NS(=O)(=O)C3CC3)CC3CCC(C)C(O)(O3)C(=O)C(=O)N3CCCCC3C(=O)O2)CCC1OCCCO` (mixture of isomers) [Compound 15], the Kd is less than 0.0003 µM in assay [1], 0.01 to 0.1 µM in assay [2], less than 0.3 µM in assay [3] and greater than 0.8 µM in assay [4]. The compound also displayed a half-inhibitory concentration (IC50) in assay [5] of 0.0001 to 0.0008 µM. In addition, the “mTORC2 % inhibition at 1 uM” value in assay [6] is recorded as “A (A ≤20% inhibition at 1 micro Molar (uM))”.
With `COC1CC(CC(C)C2CC(=O)C(C)C=C(C)C(O)C(OC)C(=O)C(C)CC(C)C=CC=CC=C(C)C(OCC3CCC3)CC3CCC(C)C(O)(O3)C(=O)C(=O)N3CCCCC3C(=O)O2)CCC1O` (stereo not drawn) [Compound 37], the results for the Kd in assay [1], in assay [3] and in assay [4] were greater than 0.001 µM, 0.3 to 0.8 µM and greater than 0.8 µM, respectively. Moreover, the IC50 in assay [5] is greater than 0.0008 µM. Moreover, the “mTORC2 % inhibition at 1 uM” value in assay [6] is “B (B>20% and less than 40% inhibition at 1 uM)”.
For the compound `CO[C@@H]1C[C@H](C[C@@H](C)[C@@H]2CC(=O)[C@H](C)/C=C(\C)[C@@H](O)[C@@H](OC)C(=O)[C@H](C)C[C@H](C)/C=C/C=C/C=C(\C)[C@H](OCC3CCC3)C[C@@H]3CC[C@@H](C)[C@@](O)(O3)C(=O)C(=O)N3CCCC[C@H]3C(=O)O2)CC[C@H]1OCCCS(C)(=O)=O` [Compound 63], the values for the equilibrium dissociation constant (Kd) in assay [1], in assay [3] and in assay [4] were greater than 0.001 µM, 0.3 to 0.8 µM and greater than 0.8 µM, respectively. The compound also registered a 50% inhibitory concentration (IC50) in assay [5] greater than 0.0008 µM. In assay [6], the “mTORC2 % inhibition at 1 uM” value is “C (C≥40% and less than 60% inhibition at 1 uM)”.
As to `CO[C@H]1C[C@@H]2CC[C@@H](C)[C@@](O)(O2)C(=O)C(=O)N2CCCC[C@H]2C(=O)O[C@H]([C@H](C)C[C@@H]2CC[C@@H](O)[C@H](OC)C2)CC(=O)[C@H](C)/C=C(\C)[C@@H](O)[C@@H](OC)C(=O)[C@H](C)C[C@H](C)/C=C/C=C/C=C/1C` [Rapamycin, reference compound], the Kd in assay [2] was less than 0.01 µM. For the same compound, the inhibition at 1 µM in assay [6] (PC-3, read-out: mTORC2 % inhibition at 1 uM) is no less than 60%.

What is called Kd is the free concentration of one partner at which half of the binding sites on the other are occupied at equilibrium, for simple one-to-one binding. A low value points to higher affinity. For orientation: IC50 means the concentration at which inhibition is half-maximal. A higher IC50 goes with weaker potency. Usually inhibition stands for the percentage by which the read-out fell short of the control.
